Holding throughout (format): in vivo
One data set deals with transplanted rice plant. The data set is described as follows: Test Example 1: effect on crop, application before weed generation in submerged conditions (symbol a). As to conditions: application herbicide amount 320 g/ha. The procedure, abridged: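 Rice at 2.5 leaf stage transplanted into submerged soil (4 cm depth) sown with three weed species; herbicide applied before weed emergence.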

In data set [1] the test system is Chenopodium album. Kind of data set: Test Example 4: herbicidal effect by soil treatment (symbol O). As to conditions: application herbicide amount 320 g/ha. The procedure, abridged:
(§1)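 Seeds were sown in sterilized diluvial soil, covered with about 1.5 cm of soil, and the soil surface was sprayed with a water-diluted emulsion of the compound at a predetermined rate. Plants grew in a greenhouse at 25° C. to 30° C.; effects were scored visually 3 weeks after application.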

A further data set deals with Scirpus juncoides. Kind of data set: Test Example 2: herbicidal activity, application during weed generation in submerged conditions (symbol B). As to conditions: Table 23; application herbicide amount 320 g/ha; grade 0-5 by criteria of Test Example 1. The procedure, abridged:
(§2)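 Flooded-soil post-emergence test: emulsion of compound, water-diluted to target rate, applied to paddy water surface at 1–2 leaf stage of mixed-sown weeds (alluvial soil, 4 cm water, 25–30° C. greenhouse); visual rating 3 weeks after application.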

In the next data set the test system is beet. The data set is described as follows: Test Example 4: effect on crop by soil treatment (symbol f). Particulars: application herbicide amount 320 g/ha. A digest of the protocol:
(§3)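 Crop seed is sown in spots together with several weed species in a box of sterilized diluvial soil. It is covered by about 1.5 cm of soil and kept in a greenhouse held between 25° C. and 30° C.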

In the next data set the test system is Monochoria vaginalis. The data set is described as follows: Test Example 2: herbicidal activity, application during weed generation in submerged conditions (symbol C). As to conditions: Table 23; application herbicide amount 320 g/ha; grade 0-5 by criteria of Test Example 1. A digest of the protocol: as §2
The next data set has as its system Cyperus difformis. Kind of data set: Test Example 3: herbicidal effect by foliage application, Wagner pot (symbol E). As to conditions: application herbicide amount 320 g/ha. A digest of the protocol:
(§4)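 Rating at 3 weeks post-spray, by defined criteria. Treatment: emulsion diluted with water to a predetermined amount, applied evenly to foliage of 14-day-old plants raised in alluvial soil flooded 0.1–0.5 cm deep at 25–30 °C, rice co-sown.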

In data set [2] the test system is Echinochloa crus-galli var. crus-galli. The data set is described as follows: Test Example 4: herbicidal effect by soil treatment (symbol H). Particulars: application herbicide amount 320 g/ha. A digest of the protocol: as §1
For another data set, the system named is rapeseed. The data set is described as follows: Test Example 4: effect on crop by soil treatment (symbol g). As to conditions: application herbicide amount 320 g/ha. A digest of the protocol:
as §3

In data set [3] the test system is directly sowed rice plant. The data set is described as follows: Test Example 3: effect on crop by foliage application, Wagner pot (symbol b). Particulars: application herbicide amount 320 g/ha. The procedure, abridged: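 Greenhouse culture at 25–30 °C of seeded rice, Cyperus difformis, Leptochloa chinensis and Echinochloa crus-galli var. crus-galli, in alluvial soil held under 0.1–0.5 cm of water in a Wagner pot.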

Data set [4] deals with Echinochloa crus-galli var. crus-galli. The data set is described as follows: Test Example 3: herbicidal effect by foliage application, Wagner pot (symbol H). As to conditions: application herbicide amount 320 g/ha. A digest of the protocol: as §4
A further data set has as its system Stellaria media. The data set is described as follows: Test Example 5: herbicidal effect by foliage application, plastic box (symbol P). As to conditions: 320 g/ha, 3 weeks after application. The procedure, abridged: (§5)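 Herbicide, formulated as an emulsion and diluted in water, is sprayed onto the aerial parts of 14-day seedlings. These were grown at 25° C. to 30° C. in sterilized diluvial soil; effects are graded after 3 weeks.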

The next data set deals with Apera spica-venti. The data set is described as follows: Test Example 5: herbicidal effect by foliage application, plastic box (symbol L). As to conditions: 320 g/ha, 3 weeks after application. The procedure, abridged:
as §5

Another data set has as its system Leptochloa chinensis. The data set is described as follows: Test Example 3: herbicidal effect by foliage application, Wagner pot (symbol D). Particulars: application herbicide amount 320 g/ha. The procedure, abridged:
as §4

For the next data set, the system named is Abutilon theophrasti. The data set is described as follows: Test Example 5: herbicidal effect by foliage application, plastic box (symbol M). Particulars: 320 g/ha, 3 weeks after application. A digest of the protocol: as §5
Data set [5] relates to Chenopodium album. Kind of data set: Test Example 5: herbicidal effect by foliage application, plastic box (symbol O). Particulars: 320 g/ha, 3 weeks after application. A digest of the protocol: as §5

With `CON=C(C)CC1CC(OC(=O)C(C)CSC)=C(c2c(C)cc(-c3ccc(Cl)cc3)cc2C)C1=O` (stereo not drawn) [6-086], the “Effect grade on crop, a: transplanted rice plant” value (from here on “Effect grade on crop”) in the data set with transplanted rice plant is 5 (Herbicidal ratio of 90% or more (almost completely withered)). For the same compound, the “Herbicidal effect grade, O: Chenopodium album” value (“Herbicidal effect grade, O” below) in the data set on Chenopodium album [1] is 3 (Herbicidal ratio of 40% or higher and lower than 70%). For the same compound, the “Herbicidal effect grade, B: Scirpus juncoides” value (“Herbicidal effect grade, B” below) with Scirpus juncoides was 4 (Herbicidal ratio of 70% or higher and lower than 90%). Also, the “Effect on crop grade, f: beet” value in the data set with beet is 1 (Herbicidal ratio of 5% or higher and lower than 20%). Also, the “Herbicidal effect grade, C: Monochoria vaginalis” value (“Herbicidal effect grade, C” below) with Monochoria vaginalis was 3 (Herbicidal ratio of 40% or higher and lower than 70%). Moreover, in the data set with Cyperus difformis, the “herbicidal effect on E, grade 0-5” value is listed as 5 (Herbicidal ratio of 90% or more (almost completely withered)). The “Herbicidal effect grade, H: Echinochloa crus-galli var. crus-galli” value (shortened to “Herbicidal effect grade, H”) in data set [2] was 5 (Herbicidal ratio of 90% or more (almost completely withered)). Also, the “Effect on crop grade, g: rapeseed” value in the data set with rapeseed was 4 (Herbicidal ratio of 70% or higher and lower than 90%). For the same compound, the “effect on crop b (directly sowed rice plant), grade 0-5” value (shortened to “effect on crop b”) in data set [3] is 5 (Herbicidal ratio of 90% or more (almost completely withered)). Besides, the “herbicidal effect on H (Echinochloa crus-galli var. crus-galli), grade 0-5” value (“herbicidal effect on H” below) in data set [4] is recorded as 5 (Herbicidal ratio of 90% or more (almost completely withered)). For the same compound, the “P: Stellaria media, herbicidal effect (criteria of Test Example 1)” value (“P: Stellaria media, herbicidal effect” for short) with Stellaria media was 4 (Herbicidal ratio of 70% or higher and lower than 90%). Further, the “L: Apera spica-venti, herbicidal effect (criteria of Test Example 1)” value (from here on “L: Apera spica-venti, herbicidal effect”) in the data set with Apera spica-venti is reported as 5 (Herbicidal ratio of 90% or more (almost completely withered)). In the data set with Leptochloa chinensis, the “herbicidal effect on D (Leptochloa chinensis), grade 0-5” value (“herbicidal effect on D” below) is given as 5 (Herbicidal ratio of 90% or more (almost completely withered)). Besides, the “M: Abutilon theophrasti, herbicidal effect (criteria of Test Example 1)” value (shortened to “M: Abutilon theophrasti”) in the data set with Abutilon theophrasti was 3 (Herbicidal ratio of 40% or higher and lower than 70%). In addition, the “O: Chenopodium album, herbicidal effect (criteria of Test Example 1)” value (“O: Chenopodium album, herbicidal effect” below) with Chenopodium album [5] was 5 (Herbicidal ratio of 90% or more (almost completely withered)).
`CON=C(C)CC1CC(O)=C(c2c(C)cc(-c3cc(Cl)cc(Cl)c3)cc2C)C1=O` (stereo not drawn) [6-087]: the “Effect grade on crop” value with transplanted rice plant was 2 (Herbicidal ratio of 20% or higher and lower than 40%). The “Herbicidal effect grade, O” value in the data set with Chenopodium album [1] is reported as 0 (Herbicidal ratio of 5% or lower (almost no effect)). In addition, the “Herbicidal effect grade, B” value with Scirpus juncoides was 0 (Herbicidal ratio of 5% or lower (almost no effect)). Also, in the data set on beet, the “Effect on crop grade, f: beet” value is given as 0 (Herbicidal ratio of 5% or lower (almost no effect)). Moreover, the “Herbicidal effect grade, C” value with Monochoria vaginalis was 0 (Herbicidal ratio of 5% or lower (almost no effect)). For the same compound, the “herbicidal effect on E, grade 0-5” value in the data set on Cyperus difformis is 0 (Herbicidal ratio of 5% or lower (almost no effect)). The “Herbicidal effect grade, H” value in data set [2] is listed as 5 (Herbicidal ratio of 90% or more (almost completely withered)). In the data set on rapeseed, the “Effect on crop grade, g: rapeseed” value was 1 (Herbicidal ratio of 5% or higher and lower than 20%). Also, in data set [3], the “effect on crop b” value was 5 (Herbicidal ratio of 90% or more (almost completely withered)). For the same compound, in data set [4], the “herbicidal effect on H” value was 5 (Herbicidal ratio of 90% or more (almost completely withered)). In addition, the “P: Stellaria media, herbicidal effect” value in the data set with Stellaria media was 1 (Herbicidal ratio of 5% or higher and lower than 20%). Further, the “L: Apera spica-venti, herbicidal effect” value in the data set with Apera spica-venti was 3 (Herbicidal ratio of 40% or higher and lower than 70%). In addition, the “herbicidal effect on D” value with Leptochloa chinensis is on record as 5 (Herbicidal ratio of 90% or more (almost completely withered)). Besides, the “M: Abutilon theophrasti” value in the data set on Abutilon theophrasti was 0 (Herbicidal ratio of 5% or lower (almost no effect)). Besides, the “O: Chenopodium album, herbicidal effect” value in the data set on Chenopodium album [5] is on record as 0 (Herbicidal ratio of 5% or lower (almost no effect)).
As for `CON=C(C)CC1CC(O)=C(c2c(C)cc(-c3ccc(Cl)cc3Cl)cc2C)C1=O` (stereo not drawn) [6-088], in the data set on transplanted rice plant, the “Effect grade on crop” value is 3 (Herbicidal ratio of 40% or higher and lower than 70%). The “Herbicidal effect grade, O” value in the data set on Chenopodium album [1] was 5 (Herbicidal ratio of 90% or more (almost completely withered)). In addition, the “Herbicidal effect grade, B” value in the data set on Scirpus juncoides was 2 (Herbicidal ratio of 20% or higher and lower than 40%). For the same compound, the “Effect on crop grade, f: beet” value with beet is reported as 0 (Herbicidal ratio of 5% or lower (almost no effect)). For the same compound, the “Herbicidal effect grade, C” value in the data set on Monochoria vaginalis is 0 (Herbicidal ratio of 5% or lower (almost no effect)). Further, the “herbicidal effect on E, grade 0-5” value in the data set with Cyperus difformis is given as 5 (Herbicidal ratio of 90% or more (almost completely withered)). Also, in data set [2], the “Herbicidal effect grade, H” value was 5 (Herbicidal ratio of 90% or more (almost completely withered)). Besides, the “Effect on crop grade, g: rapeseed” value in the data set with rapeseed was 3 (Herbicidal ratio of 40% or higher and lower than 70%). In addition, the “effect on crop b” value in data set [3] is listed as 5 (Herbicidal ratio of 90% or more (almost completely withered)). In [4], the “herbicidal effect on H” value is 5 (Herbicidal ratio of 90% or more (almost completely withered)). Also, the “P: Stellaria media, herbicidal effect” value in the data set with Stellaria media is 4 (Herbicidal ratio of 70% or higher and lower than 90%). Moreover, the “L: Apera spica-venti, herbicidal effect” value in the data set with Apera spica-venti is recorded as 5 (Herbicidal ratio of 90% or more (almost completely withered)). Also, in the data set with Leptochloa chinensis, the “herbicidal effect on D” value was 5 (Herbicidal ratio of 90% or more (almost completely withered)). In the data set with Abutilon theophrasti, the “M: Abutilon theophrasti” value is 3 (Herbicidal ratio of 40% or higher and lower than 70%). Also, the “O: Chenopodium album, herbicidal effect” value in the data set with Chenopodium album [5] is given as 5 (Herbicidal ratio of 90% or more (almost completely withered)).
Turning to `CON=C(C)CC1CC(OC(=O)COc2ccccc2)=C(c2c(C)cc(C)cc2OC)C1=O` (stereo not drawn) [6-091], in the data set with transplanted rice plant, the “Effect grade on crop” value was 5 (Herbicidal ratio of 90% or more (almost completely withered)). For the same compound, the “Herbicidal effect grade, O” value in the data set with Chenopodium album [1] was 3 (Herbicidal ratio of 40% or higher and lower than 70%). In addition, the “Herbicidal effect grade, B” value in the data set with Scirpus juncoides is on record as 5 (Herbicidal ratio of 90% or more (almost completely withered)). Moreover, the “Effect on crop grade, f: beet” value in the data set with beet was 1 (Herbicidal ratio of 5% or higher and lower than 20%). The “Herbicidal effect grade, C” value in the data set on Monochoria vaginalis is 3 (Herbicidal ratio of 40% or higher and lower than 70%). In addition, the “herbicidal effect on E, grade 0-5” value in the data set with Cyperus difformis is reported as 5 (Herbicidal ratio of 90% or more (almost completely withered)). Besides, the “Herbicidal effect grade, H” value in data set [2] is 5 (Herbicidal ratio of 90% or more (almost completely withered)). Besides, the “Effect on crop grade, g: rapeseed” value in the data set with rapeseed is 4 (Herbicidal ratio of 70% or higher and lower than 90%). Moreover, the “effect on crop b” value in data set [3] is on record as 5 (Herbicidal ratio of 90% or more (almost completely withered)). Also, the “herbicidal effect on H” value in data set [4] was 5 (Herbicidal ratio of 90% or more (almost completely withered)). Moreover, the “P: Stellaria media, herbicidal effect” value in the data set with Stellaria media was 4 (Herbicidal ratio of 70% or higher and lower than 90%). The “L: Apera spica-venti, herbicidal effect” value in the data set with Apera spica-venti was 5 (Herbicidal ratio of 90% or more (almost completely withered)). For the same compound, in the data set with Leptochloa chinensis, the “herbicidal effect on D” value is recorded as 5 (Herbicidal ratio of 90% or more (almost completely withered)). Further, the “M: Abutilon theophrasti” value with Abutilon theophrasti is 4 (Herbicidal ratio of 70% or higher and lower than 90%). The “O: Chenopodium album, herbicidal effect” value in the data set with Chenopodium album [5] is 3 (Herbicidal ratio of 40% or higher and lower than 70%).

The values above are taken from US11000033B2, “Ketone or oxime compound, and herbicide” (NISSAN CHEMICAL CORPORATION, priority 2014, dated 2021).
